Source: US20260146035A1, “FUSED BICYCLIC COMPOUNDS AND THEIR USE AS MER AND AXL INHIBITORS” (DONG-A ST CO., LTD., priority 2022, published 2026)
Read-outs that look alike come from different tables or passages of the source.

Tests used:
[1] = target: T1, human MER (528-end) (Homo sapiens, UniProt Q12866); experiment: HTRF kinase activity biochemical assay, MER; conditions: 10 μM ATP, 30 minutes pre-incubation; read-out: HTRF MERTK IC50
T1 construct: human MER (528-end); purchased Camnabio, Japan
T1 sequence (Q12866 528-999 limits assumed): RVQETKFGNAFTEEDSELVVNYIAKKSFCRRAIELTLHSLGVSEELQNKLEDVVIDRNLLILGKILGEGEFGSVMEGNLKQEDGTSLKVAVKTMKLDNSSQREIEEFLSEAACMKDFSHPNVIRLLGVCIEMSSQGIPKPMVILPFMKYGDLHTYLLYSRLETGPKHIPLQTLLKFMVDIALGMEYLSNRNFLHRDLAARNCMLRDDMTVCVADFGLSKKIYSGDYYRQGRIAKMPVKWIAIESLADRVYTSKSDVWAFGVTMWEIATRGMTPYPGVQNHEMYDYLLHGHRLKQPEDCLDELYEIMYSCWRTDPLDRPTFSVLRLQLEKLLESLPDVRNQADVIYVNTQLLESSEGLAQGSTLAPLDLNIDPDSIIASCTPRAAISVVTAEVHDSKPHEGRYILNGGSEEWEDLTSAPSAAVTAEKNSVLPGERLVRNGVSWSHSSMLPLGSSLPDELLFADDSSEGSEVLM

[2] = target: T2, human AXL (473-end) (Homo sapiens, UniProt P30530); experiment: HTRF kinase activity biochemical assay, AXL; conditions: 10 μM ATP, 30 minutes pre-incubation
T2 construct: human AXL (473-end); purchased SignalChem, Canada
T2 sequence (P30530 473-894 limits assumed): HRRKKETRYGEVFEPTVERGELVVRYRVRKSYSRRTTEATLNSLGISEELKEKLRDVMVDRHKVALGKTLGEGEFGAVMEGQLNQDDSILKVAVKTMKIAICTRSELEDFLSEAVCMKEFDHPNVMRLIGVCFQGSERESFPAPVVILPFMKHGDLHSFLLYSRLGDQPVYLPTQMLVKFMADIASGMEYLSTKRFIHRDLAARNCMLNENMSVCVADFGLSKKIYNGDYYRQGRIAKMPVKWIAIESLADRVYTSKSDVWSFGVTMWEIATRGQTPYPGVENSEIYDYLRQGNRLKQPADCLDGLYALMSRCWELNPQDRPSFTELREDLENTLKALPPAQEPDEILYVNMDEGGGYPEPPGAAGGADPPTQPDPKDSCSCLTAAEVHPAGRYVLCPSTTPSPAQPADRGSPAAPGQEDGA

[3] = target: T3, human TYRO3 (455-end) (Homo sapiens, UniProt Q06418); experiment: HTRF kinase activity biochemical assay, TYRO3
T3 construct: TYRO3 (455-end); purchased SignalChem, Canada
T3 sequence (Q06418 455-890 limits assumed): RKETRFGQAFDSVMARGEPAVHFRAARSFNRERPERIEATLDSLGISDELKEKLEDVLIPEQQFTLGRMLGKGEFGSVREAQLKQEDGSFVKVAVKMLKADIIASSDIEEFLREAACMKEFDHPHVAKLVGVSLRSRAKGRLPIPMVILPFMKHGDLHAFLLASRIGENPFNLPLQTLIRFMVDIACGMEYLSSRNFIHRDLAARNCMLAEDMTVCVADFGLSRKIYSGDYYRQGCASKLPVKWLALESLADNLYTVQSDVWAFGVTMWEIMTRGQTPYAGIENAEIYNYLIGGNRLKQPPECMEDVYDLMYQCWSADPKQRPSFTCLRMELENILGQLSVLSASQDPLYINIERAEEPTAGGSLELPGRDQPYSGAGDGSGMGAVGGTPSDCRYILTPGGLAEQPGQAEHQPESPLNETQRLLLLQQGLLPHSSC

[4] = 10 μM ATP, 30 minutes pre-incubation, read-out: HTRF TYRO IC50

SMILES | IC50 [1] | IC50 [2] | IC50 [3, 4] | IC50 [3]
Cn1cc(-c2cnc(N)c(C(=O)N[C@H]3CCC[C@@H]3OCc3ccc(-c4ccc5c(c4)C(C)(C)CCN5C4CCN(CCO)CC4)cc3)c2)cn1 [Example 114, 2-amino-N-{(1S,2S)-2-[(4-{1-[1-(2-hydroxyethyl)piperidin-4-yl]-4,4-dimethyl-1,2,3,4-tetrahydroquinolin-6-yl}phenyl)methoxy]cyclopentyl}-5-(1-methyl-1H-pyrazol-4-yl)pyridine-3-carboxamide] | < 0.01 µM | < 0.01 µM | 0.01 to 0.1 µM | 
CCCC1(C)CN(C2CCN(CCO)CC2)c2ccc(-c3ccc(CO[C@H]4CCC[C@@H]4NC(=O)c4cc(-c5cnn(C)c5)cnc4N)cc3)cc21 (mixture of isomers) [Example 39, 2-amino-N-{(1S,2S)-2-[(4-{1-[1-(2-hydroxyethyl)piperidin-4-yl]-3-methyl-3-propyl-2,3-dihydro-1H-indol-5-yl}phenyl)methoxy]cyclopentyl}-5-(1-methyl-1H-pyrazol-4-yl)pyridine-3-carboxamide] | < 0.01 µM | < 0.01 µM | < 0.01 µM | 
Cn1cc(-c2cnc(N)c(C(=O)N[C@H]3CCC[C@@H]3OCc3ccc(-c4cnc5c(c4)C(C)(C)C(=O)N5C4CCN(CCO)CC4)cc3)c2)cn1 [Example 76, 2-amino-N-{(1S,2S)-2-[(4-{1-[1-(2-hydroxyethyl)piperidin-4-yl]-3,3-dimethyl-2-oxo-2,3-dihydro-1H-pyrrolo[2,3-b]pyridin-5-yl}phenyl)methoxy]cyclopentyl}-5-(1-methyl-1H-pyrazol-4-yl)pyridine-3-carboxamide] | 0.01 to 0.1 µM | 0.1 to 1 µM |  | 0.1 to 1 µM
Cc1cc(-c2cnc(N)c(C(=O)N[C@H]3CCC[C@@H]3OCc3ccc(-c4ccc5c(c4)CC[C@@H]5N4CCN(CCO)CC4)cc3)c2)sn1 [Example 175, 2-amino-N-{(1S,2S)-2-[(4-{(1S)-1-[4-(2-hydroxyethyl)piperazin-1-yl]-2,3-dihydro-1H-inden-5-yl}phenyl)methoxy]cyclopentyl}-5-(3-methyl-1,2-thiazol-5-yl)pyridine-3-carboxamide] | < 0.01 µM | < 0.01 µM | 0.01 to 0.1 µM | 
Cn1cc(-c2cnc(N)c(C(=O)N[C@H]3CCC[C@@H]3OCc3ccc(-c4ccc5c(ccn5CCC(=O)O)c4)cc3)c2)cn1 [Example 58, 3-{5-[4-({[(1S,2S)-2-{[2-amino-5-(1-methyl-1H-pyrazol-4-yl)pyridine-3-carbonyl]amino}cyclopentyl]oxy}methyl)phenyl]-1H-indol-1-yl}propanoic acid] | 0.01 to 0.1 µM | 0.1 to 1 µM | > 1 µM | 
Cn1cc(-c2cnc(N)c(C(=O)N[C@H]3CCC[C@@H]3OCc3ccc(-c4ccc5c(ccn5CCN)c4)cc3)c2)cn1 [Example 67, 2-amino-N-[(1S,2S)-2-({4-[1-(2-aminoethyl)-1H-indol-5-yl]phenyl}methoxy)cyclopentyl]-5-(1-methyl-1H-pyrazol-4-yl)pyridine-3-carboxamide] | < 0.01 µM | < 0.01 µM | 0.1 to 1 µM | 
CN1CCN([C@H]2CCCc3cc(-c4ccc(CO[C@H]5CCC[C@@H]5NC(=O)c5cc(-c6cccnc6F)cnc5N)cc4)ccc32)CC1 [Example 163, 6-amino-2′-fluoro-N-[(1S,2S)-2-({4-[(5S)-5-(4-methylpiperazin-1-yl)-5,6,7,8-tetrahydronaphthalen-2-yl]phenyl}methoxy)cyclopentyl][3,3′-bipyridine]-5-carboxamide] | < 0.01 µM | < 0.01 µM | 0.01 to 0.1 µM | 
CC1(C)C[C@@H](N2CCN(CCO)CC2)c2ccc(-c3ccc(CO[C@H]4CCC[C@@H]4NC(=O)c4cc(-c5ccc(F)nc5)cnc4N)cc3)cc21 [Example 97, 6-amino-6′-fluoro-N-{(1S,2S)-2-[(4-{(1R)-1-[4-(2-hydroxyethyl)piperazin-1-yl]-3,3-dimethyl-2,3-dihydro-1H-inden-5-yl}phenyl)methoxy]cyclopentyl}[3,3′-bipyridine]-5-carboxamide] | 0.1 to 1 µM | 0.1 to 1 µM | > 1 µM | 
Cn1cc(-c2cnc(N)c(C(=O)N[C@H]3COC[C@@H]3OCc3ccc(-c4ccc5c(ccn5C5CCN(CCO)CC5)c4)cc3)c2)cn1 [Example 14, 2-amino-N-{(3S,4R)-4-[(4-{1-[1-(2-hydroxyethyl)piperidin-4-yl]-1H-indol-5-yl}phenyl)methoxy]oxolan-3-yl}-5-(1-methyl-1H-pyrazol-4-yl)pyridine-3-carboxamide] | < 0.01 µM | 0.01 to 0.1 µM | > 1 µM | 
Nc1ncc(-c2ccc(F)nc2)cc1C(=O)N[C@H]1CCC[C@@H]1OCc1ccc(-c2ccc3c(ccn3C3CCN(CCO)CC3)c2)cc1 [Example 22, 6-amino-6′-fluoro-N-{(1S,2S)-2-[(4-{1-[1-(2-hydroxyethyl)piperidin-4-yl]-1H-indol-5-yl}phenyl)methoxy]cyclopentyl}[3,3′-bipyridine]-5-carboxamide] | < 0.01 µM | 0.01 to 0.1 µM | 0.1 to 1 µM | 
CC1(C)CC(N2CCN(C(CO)CO)CC2)c2ccc(-c3ccc(CO[C@H]4CCC[C@@H]4NC(=O)c4cc(-c5cccnc5F)cnc4N)cc3)cc21 (stereo partly drawn) [Example 140, 6-amino-N-{(1S,2S)-2-[(4-{1-[4-(1,3-dihydroxypropan-2-yl)piperazin-1-yl]-3,3-dimethyl-2,3-dihydro-1H-inden-5-yl}phenyl)methoxy]cyclopentyl}-2′-fluoro[3,3′-bipyridine]-5-carboxamide] | < 0.01 µM | < 0.01 µM | 0.1 to 1 µM | 
Cn1cc(-c2cnc(N)c(C(=O)N[C@H]3CCC[C@@H]3OCc3ccc(-c4ccc5c(ccn5C5CCNCC5)c4)cc3)c2)cn1 [Example 5, 2-amino-5-(1-methyl-1H-pyrazol-4-yl)-N-[(1S,2S)-2-({4-[1-(piperidin-4-yl)-1H-indol-5-yl]phenyl}methoxy)cyclopentyl]pyridine-3-carboxamide] | < 0.01 µM | < 0.01 µM | 0.1 to 1 µM | 
Cn1cc(-c2cnc(N)c(C(=O)N[C@H]3CCC[C@@H]3OCc3ccc(-c4cnc5c(c4)CCCN5C4CCN(CCO)CC4)cc3)c2)cn1 [Example 162, 2-amino-N-{(1S,2S)-2-[(4-{8-[1-(2-hydroxyethyl)piperidin-4-yl]-5,6,7,8-tetrahydro-1,8-naphthyridin-3-yl}phenyl)methoxy]cyclopentyl}-5-(1-methyl-1H-pyrazol-4-yl)pyridine-3-carboxamide] | < 0.01 µM | < 0.01 µM | 0.01 to 0.1 µM | 
CN(C)CCn1ccc2cc(-c3ccc(CO[C@H]4CCC[C@@H]4NC(=O)c4cc(-c5cnn(C)c5)cnc4N)cc3)ccc21 [Example 70, 2-amino-N-{(1S,2S)-2-[(4-{1-[2-(dimethylamino)ethyl]-1H-indol-5-yl}phenyl)methoxy]cyclopentyl}-5-(1-methyl-1H-pyrazol-4-yl)pyridine-3-carboxamide] | < 0.01 µM | < 0.01 µM | 0.1 to 1 µM | 
CC1(C)CN(C2CCN(CCO)CC2)c2ccc(-c3ccc(CO[C@H]4COC[C@@H]4NC(=O)c4cc(-c5cncc(F)c5)cnc4N)cc3)cc21 [Example 44, 6-amino-5′-fluoro-N-{(3S,4R)-4-[(4-{1-[1-(2-hydroxyethyl)piperidin-4-yl]-3,3-dimethyl-2,3-dihydro-1H-indol-5-yl}phenyl)methoxy]oxolan-3-yl}[3,3′-bipyridine]-5-carboxamide] | < 0.01 µM | 0.1 to 1 µM | 0.1 to 1 µM | 
CN(C)CC(=O)NC1Cc2ccc(-c3ccc(CO[C@H]4CCC[C@@H]4NC(=O)c4cc(-c5cnn(C)c5)cnc4N)cc3)cc2C1 (stereo partly drawn) [Example 9, 2-amino-N-{(1S,2S)-2-[(4-{2-[2-(dimethylamino)acetamido]-2,3-dihydro-1H-inden-5-yl}phenyl)methoxy]cyclopentyl}-5-(1-methyl-1H-pyrazol-4-yl)pyridine-3-carboxamide] | < 0.01 µM | 0.01 to 0.1 µM | > 1 µM | 
